Measurements: patent US9968698B2, “Charged singlet-oxygen sensitizers and oppositely-charged surfactants” (STC.UNM, priority 2013, dated 2018)
Several values for one entry are separate records, joined by “and”; a condition that tells them apart may be missing. Equal entries are not always repeated.

Columns and labels:
S. aureus (ATCC 25923) = assay: Live/dead flow cytometry biocidal assay with samples UVA pre-irradiated before bacterial exposure, Example 2; format: cell-based, Staphylococcus aureus; conditions: for biocidal activity vs. S. aureus after pre-irradiation: then 15 minutes UVA with bacteria
Method: (§1) All media and buffers were prepared using deionized water with a resistivity exceeding 18 MΩ*cm. Nutrient Broth 234000 (Difco) was prepared according to manufacturer's instructions, and Nutrient Agar was prepared upon the addition of 8 g/L Bacto agar (Difco). Both S. aureus (ATCC 25923) and E. coli (ATCC 29425) were grown from glycerol-preserved stock. The frozen stock aliquots were generated from first-generation cultures of the original ATCC lyophilate, which were grown in Nutrient Broth containing 20% glycerol, and subsequently stored at −70° C. The cells were grown by inoculating the glycerol stock on Difco Nutrient Agar for 24 hours at 37° Celsius. For biocidal testing, S. aureus and E. coli cells were scraped off the agar plate with a flame-sterilized wire and transferred to nutrient broth. Cells were incubated in an Orbital Incubator Shaker (American Instruments, Lafayette, Calif.) at 37° Celsius in nutrient broth with rapid shaking (250 rpm) for 18 hours. Following the 18-hour incubation period, cells were separated from the nutrient broth by two 15-minute centrifugations at 4,400 rpm, each of which was followed by removal of the supernatant and re-suspension in 30 mL 0.85% NaCl.
Flow cytometry was implemented to determine the cell concentration of the 0.85% NaCl-suspended bacterial stock solutions. An Accuri C6 flow cytometer (Becton Dickinson, Franklin Lakes, N.J.) equipped with a blue laser that excites at 488 nm was utilized. Two filters were used: a green fluorescence filter (FL-1: 530 nm) and a red fluorescence filter (FL-3: 670 nm long pass). Two thresholds were used, a primary threshold and a secondary threshold. […] Flow cytometer core size in all experiments was 10 μm, with a flow rate of 14 μL/minute. […]
(§2) The solid compound OPE 1, as a dichloride salt, was dissolved in filtered water with a resistivity of 18 MΩ*cm to a final concentration of 10 μM. […] Progress of the photolysis was monitored by UV-visible absorption spectroscopy with a Molecular Devices Spectramax M5 spectrophotometer (Molecular Devices, Sunnyvale, Calif.). […]

E. coli [1] = assay: Confocal fluorescence microscopy of exposed bacteria, Example 2; format: cell-based, Escherichia coli; conditions: UVA, versus untreated cells, FIG. 20
[2] = UVA photolysis under the same conditions, without surfactant; cited from earlier work
E. coli (ATCC 29425) = assay: Live/dead flow cytometry biocidal assay with samples UVA pre-irradiated before bacterial exposure, Example 2; format: cell-based, Escherichia coli; conditions: for biocidal activity vs. E. coli after pre-irradiation: then 30 minutes UVA with bacteria
Method: as §1
Flow cytometry was implemented to determine the cell concentration of the 0.85% NaCl-suspended bacterial stock solutions. An Accuri C6 flow cytometer (Becton Dickinson, Franklin Lakes, N.J.) equipped with a blue laser that excites at 488 nm was utilized. Two filters were used: a green fluorescence filter (FL-1: 530 nm) and a red fluorescence filter (FL-3: 670 nm long pass). Two thresholds were used, a primary threshold and a secondary threshold. […] Flow cytometer core size in all experiments was 10 μm, with a flow rate of 14 μL/minute. Using these settings, 20 μL of un-stained stock solution was sufficient for identifying the stock concentration of cells.
For biocidal testing, the stock solution was either diluted or concentrated to 2×10^7 cells/mL. Equal volumes of the sample and bacterial solution were added to glass tubes prior to analysis. Cells were stained with 5 mM SYTO 21 (live stain; Life Technologies, Grand Island, N.Y.) and […] Propidium iodide (dead stain; Life Technologies, Grand Island, N.Y.) for 15-30 minutes prior to flow cytometry anaylsis. An example of the flow cytometry gating scheme for E. coli is shown below, in FIG. 14. […]
as §2

S. aureus [3] = assay: Confocal microscopy of bacteria irradiated with UVA for 15 minutes, Example 2; format: cell-based, Staphylococcus aureus; conditions: UVA light for 15 minutes, FIG. 22
Method: The solid compound OPE 1, as a dichloride salt, was dissolved in filtered water with a resistivity of 18 MΩ*cm to a final concentration of 10 μM. The solution was then exposed to UVA radiation via a Luzchem LZC-ORG photoreactor (Luzchem Research, Ontario, Canada) in a quartz tube or cuvette. This photoreactor was configured with 10 LZC-UVA lamps (>5.3 mW-cm^−2 over 316-400 nm, Luzchem Research, Ontario, Canada) with a fan-powered exhaust to keep a stable temperature and a carousel for homogeneous irradiation of samples. Progress of the photolysis was monitored by UV-visible absorption spectroscopy with a Molecular Devices Spectramax M5 spectrophotometer (Molecular Devices, Sunnyvale, Calif.). Sodium dodecyl sulfate (SDS) was obtained from Sigma Aldrich. For the OPE 1-SDS complexes, 10 μM OPE 1 was mixed with 40 μM SDS, 0.24% of the critical micelle concentration (CMC). S. aureus samples were exposed to a OPE 1-SDS complex where the concentration of SDS was 0.33 mM, as they were much more resilient to killing caused by SDS. Samples were irradiated for 0, 30, 60, and 120 minutes prior to exposure to bacteria. Once exposed to OPE 1 or 1-SDS complex, E. coli and S. aureus samples were irradiated with UVA in the photoreactor for 30 minutes and 15 minutes, respectively.

[4] = tested on: Staphylococcus aureus (ATCC 10832); assay: Live/dead flow cytometry biocidal assay, Example 1; format: cell-based; conditions: 60 minutes, 10 μM OPE
Method: All media and buffers were prepared with deionized water with a resistivity of at least 18 MΩ cm. Nutrient broth 234000 (Difco) was prepared according to manufacturer's instructions. Nutrient agar was prepared upon the addition of 8 g/L bacto agar (Difco). Staphylococcus aureus (ATCC 10832) and Escherichia coli (ATCC 29425) were both grown from glycerol-preserved stock which originated from first-generation cultures of original ATCC lyophilates grown in nutrient broth (containing 20% glycerol) and subsequently stored at −70° C. Cells of the aforementioned strains were grown upon the inoculation of glycerol stock on Difco nutrient agar at 37° C. for 24 hours. […]
The bacterial stock solution was either diluted or concentrated to 2×10^7 cells/mL. […] Biocidal activity under UVA irradiation was determined using a Luzchem LZC-ORG photoreactor (Luzchem Research, Ontario, Canada). […]
Flow cytometry gating and analysis were carried out as performed in previous studies of biocidal activity of OPEs (see Z. Malik, J. Hanania, Y. Nitzan New trends in photobiology bactericidal effects of photoactivated porphyrins—An alternative approach to antimicrobial drugs, Journal of Photochemistry and Photobiology B: Biology 1990, 5 (3-4), 281-293). […] 100,000 events were recorded in each sample. […]

[5] = tested on: Staphylococcus aureus (ATCC 10832); assay: Biocidal testing by standard plating (colony counts relative to UVA negative control), Example 1; format: cell-based; conditions: FIG. 4
Method: (§3) All media and buffers were prepared with deionized water with a resistivity of at least 18 MΩ cm. Nutrient broth 234000 (Difco) was prepared according to manufacturer's instructions. Nutrient agar was prepared upon the addition of 8 g/L bacto agar (Difco). Staphylococcus aureus (ATCC 10832) and Escherichia coli (ATCC 29425) were both grown from glycerol-preserved stock which originated from first-generation cultures of original ATCC lyophilates grown in nutrient broth (containing 20% glycerol) and subsequently stored at −70° C. Cells of the aforementioned strains were grown upon the inoculation of glycerol stock on Difco nutrient agar at 37° C. for 24 hours. Cell culture preparation for biocidal testing entailed scraping S. aureus or E. coli colonies off their agar plates and transferring them to nutrient broth for growth. Cells were then incubated in an Orbital Incubator Shaker (American Instruments, Lafayette, Calif.) for 18 h at 37° C. with rapid shaking (250 rpm). Following the incubation period, cells were washed by two 15 min centrifugations at 4,400 rpm; in each case, supernatant was replaced by 30 mL of 0.85% NaCl following pellet formation.
(§4) The bacterial stock solution was either diluted or concentrated to 2×10^7 cells/mL. Samples were diluted by the addition of 0.85% NaCl, while concentrating the sample entailed centrifugation to pellet the cells, followed by removal of the necessary amount of supernatant and subsequent resuspension of the pellet by vortexing. 500 μL of bacterial solution was added to glass vials with 500 μL of sample solution to reach a final volume of 1 mL prior to analysis. Samples tested contained 10 μM OPE, 40 μM TTAB, or both 10 μM OPE and 40 μM TTAB. Biocidal activity under UVA irradiation was determined using a Luzchem LZC-ORG photoreactor (Luzchem Research, Ontario, Canada). This photoreactor was configured with 10 UVA lamps (0.975 mW/cm^2 over 316-400 nm) with a fan-powered exhaust to keep a stable temperature of 28° C. and a rotating carousel for homogeneous irradiation of samples. Samples exposed in the dark were kept at room temperature, 25° C. 70% Ethanol was used as a positive control, and a 60 minute UVA-irradiated sample of bacteria was used as a negative control.
(§5) The results of the live/dead assay were verified by confocal fluorescence microscopy using a Zeiss Confocal microscope with an Ar laser (488 nm) and a HeNe laser ([…]) as excitation sources. Standard plating techniques were utilized to validate flow cytometry data. This entailed pipetting and spreading 50 μL aliquots of diluted, unstained sample, onto nutrient agar plates. The plates were incubated at 37° C. for 18 hours, colonies were counted, and viabilities were calculated relative to the UVA negative control. […]

[6] = in water; cited from earlier work
E. coli [7] = conditions: reported value, against E. coli; cited from earlier work
S. aureus [8] = conditions: reported value, against S. aureus; cited from earlier work
[9] = tested on: Escherichia coli (ATCC 29425); assay: Biocidal testing by standard plating (colony counts relative to UVA negative control), Example 1; format: cell-based; conditions: 40 μM TTAB alone, one hour of exposure, FIG. 5
Method: as §3, §4, §5

[10] = 10 μM OPE 1, 30 minutes of UVA irradiation prior to bacterial exposure
[11] = 10 μM OPE 1, 2 hours of UVA pre-exposure
[12] = 0.33 mM SDS alone, control experiment

SMILES: C[N+](C)(C)CCOc1ccc(C#Cc2ccc(C#Cc3ccc(OCC[N+](C)(C)C)cc3)cc2)cc1 [OPE 1]
- biocidal activity vs. S. aureus after pre-irradiation (S. aureus (ATCC 25923); [10]): significant drop in biocidal activity
- biocidal activity vs. S. aureus after pre-irradiation (S. aureus (ATCC 25923); [11]): entirely lost
- filamentous growth of E. coli (stress response) (E. coli [1]): more likely to undergo filamentous growth than untreated cells
- time of photolysis until absorbance diminished and fluorescence completely quenched [2]: ≤ 2 min
- biocidal activity vs. E. coli after pre-irradiation (E. coli (ATCC 29425); [10]): significant drop in biocidal activity
- biocidal activity vs. E. coli after pre-irradiation (E. coli (ATCC 29425); [11]): nearly lost
- clustering of S. Aureus (stress response) (S. aureus [3]): clusters of large numbers of cells

SMILES: O=S(=O)(O)CCCOc1ccc(C#Cc2ccc(C#Cc3ccc(OCCCS(=O)(=O)O)cc3)cc2)cc1 [OPE]
- S. aureus killed (immediate killing by flow cytometry) ([4]; in the dark): 23.2%
- S. aureus killed (immediate killing by flow cytometry) ([4]; under UVA irradiation): 35.1%
- S. aureus killed ([5]; in the dark, 60 minutes, 10 μM OPE (complex: plus 40 μM TTAB)): 41.3%
- S. aureus killed ([5]; in the light (UVA), 60 minutes, 10 μM OPE (complex: plus 40 μM TTAB)): 68.1%

SMILES: CCCCCCCCCCCCOS(=O)(=O)[O-].[Na+] [SDS, sodium dodecyl sulfate]
- critical micelle concentration [6]: ~8.3 mM
- effect on S. aureus (S. aureus (ATCC 25923); [12]): viable
- E. coli cells killed (E. coli (ATCC 29425); 40 μM SDS alone, control experiment): ~40%
- effect on E. coli (E. coli (ATCC 29425); [12]): significant killing

SMILES: CCCCCCCCCCCCCC[N+](C)(C)C.[Br-] [TTAB, tetradecyl trimethylammonium bromide]
- critical micelle concentration [6]: 4.3 mM
- minimum inhibitory concentration (E. coli [7]): 5 mM
- minimum inhibitory concentration (S. aureus [8]): 5 mM
- S. aureus killed ([5]; 40 μM TTAB alone, one hour of exposure): 8.7% and 9%
- E. coli killed [9]: 56.1% and 56%
